How the values were obtained:
Bentgrass = assay: Turf grass selectivity, greenhouse pot test; format: in vivo, Agrostris palustris
Summary of the method: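 Turf mats transplanted to pots of sandy loam/top soil (1:1), mown weekly to 0.5-1.0 cm and grown one month in greenhouse (25˜30° C. day, 15˜25° C. night). Test chemicals sprayed at 400, 200, 100, 50, 25, 12, 6, 3 g ai/ha in 2,000 L/ha tap-water dilution; three replicates, randomised, averaged.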

Digitaria sanguinalis = assay: Weed spectrum, greenhouse pot test; format: in vivo; conditions: two weeks after application
Summary of the method: (§1)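 Seeds of each species were sown into pots filled with sandy loam and top soil (1:1) and kept in a greenhouse. Test chemical was sprayed immediately after sowing (pre-emergence) or after two weeks' growth to about three-leaf stage (post-emergence). Efficacy was judged visually after two weeks, from 0 (none) to 100.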

Kummerowia striata = assay: Weed spectrum, greenhouse pot test; format: in vivo; conditions: two weeks after application
Summary of the method: as §1

Cyperus amuricus = assay: Weed spectrum, greenhouse pot test; format: in vivo; conditions: two weeks after application
Summary of the method: as §1

Veronica officinalis = assay: Weed spectrum, greenhouse pot test; format: in vivo; conditions: two weeks after application
Summary of the method: as §1

Portulaca oleracea = assay: Weed spectrum, greenhouse pot test; format: in vivo; conditions: two weeks after application
Summary of the method: as §1

Trifolium repens = assay: Weed spectrum, greenhouse pot test; format: in vivo; conditions: two weeks after application
Summary of the method: as §1

Poa annua = assay: Weed spectrum, greenhouse pot test; format: in vivo; conditions: two weeks after application
Summary of the method: as §1

Dandelion = assay: Weed spectrum, greenhouse pot test; format: in vivo; conditions: two weeks after application

## COc1cc(OC)nc(NC(=O)NS(=O)(=O)c2ncccc2C(F)(F)F)n1 [Control chemical No. 2, Flazasulfuron, reference compound]
Bentgrass; 3 g ai/ha, 2 weeks
  phytotoxicity (visual assessment 0-10): 10
Bentgrass; 3 g ai/ha, 4 weeks
  phytotoxicity (visual assessment 0-10): 10
Bentgrass; 6 g ai/ha, 2 weeks
  phytotoxicity (visual assessment 0-10): 10
Bentgrass; 6 g ai/ha, 4 weeks
  phytotoxicity (visual assessment 0-10): 10
Bentgrass; 12 g ai/ha, 2 weeks
  phytotoxicity (visual assessment 0-10): 10
Bentgrass; 12 g ai/ha, 4 weeks
  phytotoxicity (visual assessment 0-10): 10
Bentgrass; 25 g ai/ha, 2 weeks
  phytotoxicity (visual assessment 0-10): 10
Bentgrass; 25 g ai/ha, 4 weeks
  phytotoxicity (visual assessment 0-10): 10
Bentgrass; 50 g ai/ha, 2 weeks
  phytotoxicity (visual assessment 0-10): 10
Bentgrass; 50 g ai/ha, 4 weeks
  phytotoxicity (visual assessment 0-10): 10
Bentgrass; 100 g ai/ha, 2 weeks
  phytotoxicity (visual assessment 0-10): 10
Bentgrass; 100 g ai/ha, 4 weeks
  phytotoxicity (visual assessment 0-10): 10
Bentgrass; 200 g ai/ha, 2 weeks
  phytotoxicity (visual assessment 0-10): 10
Bentgrass; 200 g ai/ha, 4 weeks
  phytotoxicity (visual assessment 0-10): 10
Bentgrass; 400 g ai/ha, 2 weeks
  phytotoxicity (visual assessment 0-10): 10
Bentgrass; 400 g ai/ha, 4 weeks
  phytotoxicity (visual assessment 0-10): 10
Digitaria sanguinalis; Post-emergence, 12 g ai/ha
  efficacy (0-100 scale): 50
Digitaria sanguinalis; Post-emergence, 25 g ai/ha
  efficacy (0-100 scale): 70
Digitaria sanguinalis; Post-emergence, 50 g ai/ha
  efficacy (0-100 scale): 80
Digitaria sanguinalis; Post-emergence, 100 g ai/ha
  efficacy (0-100 scale): 80
Digitaria sanguinalis; Pre-emergence, 12 g ai/ha
  efficacy (0-100 scale): 60
Digitaria sanguinalis; Pre-emergence, 25 g ai/ha
  efficacy (0-100 scale): 70
Digitaria sanguinalis; Pre-emergence, 50 g ai/ha
  efficacy (0-100 scale): 90
Digitaria sanguinalis; Pre-emergence, 100 g ai/ha
  efficacy (0-100 scale): 100
Kummerowia striata; Post-emergence, 12 g ai/ha
  efficacy (0-100 scale): 80
Kummerowia striata; Post-emergence, 25 g ai/ha
  efficacy (0-100 scale): 90
Kummerowia striata; Post-emergence, 50 g ai/ha
  efficacy (0-100 scale): 100
Kummerowia striata; Post-emergence, 100 g ai/ha
  efficacy (0-100 scale): 100
Kummerowia striata; Pre-emergence, 12 g ai/ha
  efficacy (0-100 scale): 80
Kummerowia striata; Pre-emergence, 25 g ai/ha
  efficacy (0-100 scale): 90
Kummerowia striata; Pre-emergence, 50 g ai/ha
  efficacy (0-100 scale): 100
Kummerowia striata; Pre-emergence, 100 g ai/ha
  efficacy (0-100 scale): 100
Cyperus amuricus; Post-emergence, 12 g ai/ha
  efficacy (0-100 scale): 60
Cyperus amuricus; Post-emergence, 25 g ai/ha
  efficacy (0-100 scale): 70
Cyperus amuricus; Post-emergence, 50 g ai/ha
  efficacy (0-100 scale): 80
Cyperus amuricus; Post-emergence, 100 g ai/ha
  efficacy (0-100 scale): 80
Cyperus amuricus; Pre-emergence, 12 g ai/ha
  efficacy (0-100 scale): 40
Cyperus amuricus; Pre-emergence, 25 g ai/ha
  efficacy (0-100 scale): 70
Cyperus amuricus; Pre-emergence, 50 g ai/ha
  efficacy (0-100 scale): 80
Cyperus amuricus; Pre-emergence, 100 g ai/ha
  efficacy (0-100 scale): 100
Veronica officinalis; Post-emergence, 12 g ai/ha
  efficacy (0-100 scale): 10
Veronica officinalis; Post-emergence, 25 g ai/ha
  efficacy (0-100 scale): 20
Veronica officinalis; Post-emergence, 50 g ai/ha
  efficacy (0-100 scale): 30
Veronica officinalis; Post-emergence, 100 g ai/ha
  efficacy (0-100 scale): 40
Veronica officinalis; Pre-emergence, 12 g ai/ha
  efficacy (0-100 scale): 20
Veronica officinalis; Pre-emergence, 25 g ai/ha
  efficacy (0-100 scale): 30
Veronica officinalis; Pre-emergence, 50 g ai/ha
  efficacy (0-100 scale): 50
Veronica officinalis; Pre-emergence, 100 g ai/ha
  efficacy (0-100 scale): 60
Portulaca oleracea; Post-emergence, 12 g ai/ha
  efficacy (0-100 scale): 80
Portulaca oleracea; Post-emergence, 25 g ai/ha
  efficacy (0-100 scale): 90
Portulaca oleracea; Post-emergence, 50 g ai/ha
  efficacy (0-100 scale): 90
Portulaca oleracea; Post-emergence, 100 g ai/ha
  efficacy (0-100 scale): 100
Portulaca oleracea; Pre-emergence, 12 g ai/ha
  efficacy (0-100 scale): 40
Portulaca oleracea; Pre-emergence, 25 g ai/ha
  efficacy (0-100 scale): 60
Portulaca oleracea; Pre-emergence, 50 g ai/ha
  efficacy (0-100 scale): 90
Portulaca oleracea; Pre-emergence, 100 g ai/ha
  efficacy (0-100 scale): 100
Trifolium repens; Post-emergence, 12 g ai/ha
  efficacy (0-100 scale): 80
Trifolium repens; Post-emergence, 25 g ai/ha
  efficacy (0-100 scale): 100
Trifolium repens; Post-emergence, 50 g ai/ha
  efficacy (0-100 scale): 100
Trifolium repens; Post-emergence, 100 g ai/ha
  efficacy (0-100 scale): 100
Trifolium repens; Pre-emergence, 12 g ai/ha
  efficacy (0-100 scale): 70
Trifolium repens; Pre-emergence, 25 g ai/ha
  efficacy (0-100 scale): 80
Trifolium repens; Pre-emergence, 50 g ai/ha
  efficacy (0-100 scale): 100
Trifolium repens; Pre-emergence, 100 g ai/ha
  efficacy (0-100 scale): 100
Poa annua; Post-emergence, 12 g ai/ha
  efficacy (0-100 scale): 40
Poa annua; Post-emergence, 25 g ai/ha
  efficacy (0-100 scale): 70
Poa annua; Post-emergence, 50 g ai/ha
  efficacy (0-100 scale): 80
Poa annua; Post-emergence, 100 g ai/ha
  efficacy (0-100 scale): 90
Poa annua; Pre-emergence, 12 g ai/ha
  efficacy (0-100 scale): 40
Poa annua; Pre-emergence, 25 g ai/ha
  efficacy (0-100 scale): 70
Poa annua; Pre-emergence, 50 g ai/ha
  efficacy (0-100 scale): 100
Poa annua; Pre-emergence, 100 g ai/ha
  efficacy (0-100 scale): 100
Dandelion; Post-emergence, 12 g ai/ha
  efficacy (0-100 scale): 10
Dandelion; Post-emergence, 25 g ai/ha
  efficacy (0-100 scale): 30
Dandelion; Post-emergence, 50 g ai/ha
  efficacy (0-100 scale): 40
Dandelion; Post-emergence, 100 g ai/ha
  efficacy (0-100 scale): 50
Dandelion; Pre-emergence, 12 g ai/ha
  efficacy (0-100 scale): 30
Dandelion; Pre-emergence, 25 g ai/ha
  efficacy (0-100 scale): 40
Dandelion; Pre-emergence, 50 g ai/ha
  efficacy (0-100 scale): 50
Dandelion; Pre-emergence, 100 g ai/ha
  efficacy (0-100 scale): 70

Reference: US20100035755A1, “METHOD OF CONTROLLING WEEDS IN A TURF GRASS BY USING SULFONYLUREA COMPOUNDS” (Moghu Research Center Ltd., priority 2008, published 2010)
